Data published in PubChem BioAssay AID256 (DTP/NCI, 2004).
“And” between values parts separate entries of the source, which are not always exact repeats. Equal values may be shown once. Inconclusive results and toxic doses are left out.

Test system: CD2F1 mice, L1210 leukemia ip, survival T/C
Assay: NCI In Vivo Anticancer Drug Screen. Data for tumor model L1210 Leukemia (intraperitoneal) in CD2F1 (CDF1) mice
Details: higher = longer survival
Procedure, shortened: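 Compound-dosed mice with transplantable tumor versus matched vehicle controls; endpoint ratio T/C reported.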

[1] = endpoint: mean survival time, dose: 75.0 mg/kg/injection, schedule: Q01DX001 (ip), vehicle: other
[2] = endpoint: mean survival time, dose: 150.0 mg/kg/injection, schedule: Q01DX001 (ip), vehicle: other
[3] = endpoint: mean survival time, dose: 300.0 mg/kg/injection, schedule: Q01DX001 (ip), vehicle: other
[4] = endpoint: mean survival time, dose: 12.5 mg/kg/injection, schedule: Q04DX003 (ip), vehicle: Klucel (hydroxypropylcellulose) (HPC)
[5] = endpoint: mean survival time, dose: 25.0 mg/kg/injection, schedule: Q04DX003 (ip), vehicle: Klucel (hydroxypropylcellulose) (HPC)
[6] = endpoint: mean survival time, dose: 50.0 mg/kg/injection, schedule: Q04DX003 (ip), vehicle: Klucel (hydroxypropylcellulose) (HPC)
[7] = endpoint: mean survival time, dose: 100.0 mg/kg/injection, schedule: Q04DX003 (ip), vehicle: Klucel (hydroxypropylcellulose) (HPC)
[8] = endpoint: mean survival time, dose: 100.0 mg/kg/injection, schedule: Q01DX001 (ip), vehicle: saline
[9] = endpoint: mean survival time, dose: 200.0 mg/kg/injection, schedule: Q01DX001 (ip), vehicle: saline
[10] = endpoint: mean survival time, dose: 200.0 mg/kg/injection, schedule: Q04DX003 (ip), vehicle: saline with Tween-80
[11] = endpoint: mean survival time, dose: 400.0 mg/kg/injection, schedule: Q04DX003 (ip), vehicle: saline with Tween-80
[12] = endpoint: mean survival time, dose: 100.0 mg/kg/injection, schedule: Q04DX003 (ip), vehicle: saline with Tween-80
[13] = endpoint: mean survival time, dose: 100.0 mg/kg/injection, schedule: Q01DX001 (ip), vehicle: saline with Tween-80
[14] = endpoint: mean survival time, dose: 200.0 mg/kg/injection, schedule: Q01DX001 (ip), vehicle: saline with Tween-80
[15] = endpoint: mean survival time, dose: 400.0 mg/kg/injection, schedule: Q01DX001 (ip), vehicle: saline with Tween-80
[16] = endpoint: mean survival time, dose: 100.0 mg/kg/injection, schedule: Q01DX009 (ip), vehicle: saline with Tween-80
[17] = endpoint: mean survival time, dose: 200.0 mg/kg/injection, schedule: Q01DX009 (ip), vehicle: saline with Tween-80
[18] = endpoint: mean survival time, dose: 400.0 mg/kg/injection, schedule: Q01DX009 (ip), vehicle: saline with Tween-80

CCN(CC)CCC(CN(C)C)C(C)=O (configuration not stated)
T/C [1]: 106 % of control | T/C [2]: 103 % of control | T/C [3]: 96 % of control

O=C(O)CSc1cc(Cl)ccc1Cl
T/C [4]: 95 % of control | T/C [5]: 98 % of control | T/C [6]: 100 % of control | T/C [7]: 100 % of control

CN(C)/C(N)=N\c1nc(O)cc(=O)[nH]1
T/C [8]: 102 % of control | T/C [9]: 96 % of control | T/C (endpoint: mean survival time, dose: 400.0 mg/kg/injection, schedule: Q01DX001 (ip), vehicle: saline): 96 % of control

[Cl][Pt+2][Cl].[NH-]c1cc(Cl)c(Cl)c(Cl)c1[NH-]
T/C (endpoint: mean survival time, dose: 2.5 mg/kg/injection, schedule: Q01DX009 (ip), vehicle: saline with Tween-80): 105 % of control | T/C (endpoint: mean survival time, dose: 5.0 mg/kg/injection, schedule: Q01DX009 (ip), vehicle: saline with Tween-80): 100 % of control | T/C (endpoint: mean survival time, dose: 10.0 mg/kg/injection, schedule: Q01DX009 (ip), vehicle: saline with Tween-80): 100 % of control | T/C (endpoint: mean survival time, dose: 20.0 mg/kg/injection, schedule: Q01DX009 (ip), vehicle: saline with Tween-80): 107 % of control | T/C (endpoint: mean survival time, dose: 40.0 mg/kg/injection, schedule: Q01DX009 (ip), vehicle: saline with Tween-80): 94 % of control

CS(=O)(=O)OCCN(CCOS(C)(=O)=O)c1cccc(C(F)(F)F)c1
T/C (endpoint: mean survival time, dose: 6.25 mg/kg/injection, schedule: Q01DX015 (ip), vehicle: saline): 113 % of control | T/C (endpoint: mean survival time, dose: 12.5 mg/kg/injection, schedule: Q01DX015 (ip), vehicle: saline): 119 % of control | T/C (endpoint: mean survival time, dose: 25.0 mg/kg/injection, schedule: Q01DX015 (ip), vehicle: saline): 107 % of control | T/C (endpoint: mean survival time, dose: 50.0 mg/kg/injection, schedule: Q01DX015 (ip), vehicle: saline): 98 % of control

Cc1cn(C2CC(OS(C)(=O)=O)C(COC(c3ccccc3)(c3ccccc3)c3ccccc3)O2)c(=O)[nH]c1=O (configuration not stated)
T/C (endpoint: mean survival time, dose: 12.5 mg/kg/injection, schedule: Q01DX005 (ip), vehicle: other): 95 % of control | T/C (endpoint: mean survival time, dose: 25.0 mg/kg/injection, schedule: Q01DX005 (ip), vehicle: other): 90 % of control | T/C (endpoint: mean survival time, dose: 50.0 mg/kg/injection, schedule: Q01DX005 (ip), vehicle: other): 91 % of control | T/C (endpoint: mean survival time, dose: 200.0 mg/kg/injection, schedule: Q01DX005 (ip), vehicle: other): 91 % of control

CCCCCCCN=NC
T/C [1]: 96 % of control | T/C [2]: 100 % of control | T/C [3]: 93 % of control

OC(Cc1cccc(/C=N/N2CCOCC2)n1)(C(F)(F)F)C(F)(F)F
T/C [10]: 89 % of control | T/C [11]: 89 % of control

CS(=O)(=O)/C(C#N)=N/O
T/C (endpoint: mean survival time, dose: 50.0 mg/kg/injection, schedule: Q01DX001 (ip), vehicle: saline): 103 % of control | T/C [8]: 98 % of control | T/C [9]: 101 % of control

CC(=O)Nc1c(N=Cc2ccc([N+](=O)[O-])cc2)cc2c3c(cccc13)CC2
T/C [6]: 91 % of control | T/C [7]: 96 % of control | T/C (endpoint: mean survival time, dose: 200.0 mg/kg/injection, schedule: Q04DX003 (ip), vehicle: Klucel (hydroxypropylcellulose) (HPC)): 94 % of control

CCOP1(=O)OCC(C(C)(C)C)CO1 (configuration not stated)
T/C [4]: 102 % of control | T/C [5]: 102 % of control

Cc1cc([N+](=O)[O-])ccc1S(=O)(=O)F
T/C (endpoint: mean survival time, dose: 25.0 mg/kg/injection, schedule: Q04DX003 (ip), vehicle: saline with Tween-80): 95 % of control | T/C (endpoint: mean survival time, dose: 50.0 mg/kg/injection, schedule: Q04DX003 (ip), vehicle: saline with Tween-80): 98 % of control | T/C [12]: 98 % of control

Fc1ccc(-c2ccc(F)cc2)cc1
T/C [12]: 101 % of control | T/C [10]: 98 % of control | T/C [11]: 98 % of control

CCCCNCC(=O)O[C@]1(CC)C(=O)OCc2c1cc1n(c2=O)Cc2cc3ccccc3nc2-1
T/C (endpoint: median survival time, dose: 7.5 mg/kg/injection, schedule: Q04DX002 (ip), vehicle: saline): 109 % of control | T/C (endpoint: median survival time, dose: 7.5 mg/kg/injection, schedule: Q04HX004 (iv), vehicle: dextrose): 150 % of control | T/C (endpoint: median survival time, dose: 7.5 mg/kg/injection, schedule: Q04HX004 (iv), vehicle: other): 158 % of control | T/C (endpoint: median survival time, dose: 15.0 mg/kg/injection, schedule: Q04DX002 (ip), vehicle: saline): 117 % of control and 124 % of control | T/C (endpoint: median survival time, dose: 15.0 mg/kg/injection, schedule: Q04HX004 (iv), vehicle: dextrose): 172 % of control | T/C (endpoint: median survival time, dose: 15.0 mg/kg/injection, schedule: Q04HX004 (iv), vehicle: other): 186 % of control | T/C (endpoint: median survival time, dose: 30.0 mg/kg/injection, schedule: Q04DX002 (ip), vehicle: saline): 158 % of control | T/C (endpoint: median survival time, dose: 30.0 mg/kg/injection, schedule: Q04HX004 (iv), vehicle: dextrose): 218 % of control | T/C (endpoint: median survival time, dose: 30.0 mg/kg/injection, schedule: Q04HX004 (iv), vehicle: other): 235 % of control | T/C (endpoint: median survival time, dose: 40.0 mg/kg/injection, schedule: Q04HX004 (iv), vehicle: other): 247 % of control | T/C (endpoint: median survival time, dose: 60.0 mg/kg/injection, schedule: Q04DX002 (ip), vehicle: saline): 195 % of control and 212 % of control

Nc1nc(=O)n(CCCOc2ccccc2NC(=O)c2cccc(S(=O)(=O)F)c2)cc1-c1ccc(Cl)c(Cl)c1
T/C [13]: 91 % of control | T/C [14]: 95 % of control | T/C [15]: 98 % of control

CCCCCC(CN(C)C)C(=O)/C=C/c1c(Cl)cccc1Cl (configuration not stated)
T/C (endpoint: mean survival time, dose: 6.25 mg/kg/injection, schedule: Q01DX009 (ip), vehicle: other): 101 % of control | T/C (endpoint: mean survival time, dose: 12.5 mg/kg/injection, schedule: Q01DX009 (ip), vehicle: other): 101 % of control | T/C (endpoint: mean survival time, dose: 25.0 mg/kg/injection, schedule: Q01DX009 (ip), vehicle: other): 104 % of control | T/C (endpoint: mean survival time, dose: 100.0 mg/kg/injection, schedule: Q01DX001 (ip), vehicle: Klucel (hydroxypropylcellulose) (HPC)): 94 % of control

C=C1C[C@@H](O)[C@H](O)[C@@]2(C)C[C@@H]3OC(=O)C(=C)[C@@H]3C[C@H]12
T/C [16]: 102 % of control

O=S(=O)(NC1CCCC2C=CC=CC21)c1ccccc1 (configuration not stated)
T/C [13]: 94 % of control | T/C [14]: 102 % of control | T/C [15]: 96 % of control

Nc1nc(N)c2[nH]c(-c3ccccc3)nc2n1
T/C (endpoint: mean survival time, dose: 6.25 mg/kg/injection, schedule: Q01DX005 (ip), vehicle: saline with Tween-80): 100 % of control | T/C (endpoint: mean survival time, dose: 12.5 mg/kg/injection, schedule: Q01DX005 (ip), vehicle: saline with Tween-80): 97 % of control | T/C (endpoint: mean survival time, dose: 25.0 mg/kg/injection, schedule: Q01DX005 (ip), vehicle: saline with Tween-80): 99 % of control | T/C (endpoint: mean survival time, dose: 50.0 mg/kg/injection, schedule: Q01DX005 (ip), vehicle: saline with Tween-80): 99 % of control

CCCC/C=C/C=C/CCCC
T/C (endpoint: mean survival time, dose: 50.0 mg/kg/injection, schedule: Q01DX009 (ip), vehicle: saline with Tween-80): 103 % of control | T/C [16]: 92 % of control | T/C [17]: 107 % of control

[I][Pt+2][I].[NH-]CC1CCCC[N-]1 (configuration not stated)
T/C (endpoint: mean survival time, dose: 3.13 mg/kg/injection, schedule: Q04DX003 (ip), vehicle: distilled water + Tween-80): 98 % of control | T/C (endpoint: mean survival time, dose: 6.25 mg/kg/injection, schedule: Q04DX003 (ip), vehicle: distilled water + Tween-80): 95 % of control | T/C (endpoint: mean survival time, dose: 12.5 mg/kg/injection, schedule: Q04DX003 (ip), vehicle: distilled water + Tween-80): 95 % of control | T/C (endpoint: mean survival time, dose: 25.0 mg/kg/injection, schedule: Q04DX003 (ip), vehicle: distilled water + Tween-80): 104 % of control | T/C (endpoint: mean survival time, dose: 50.0 mg/kg/injection, schedule: Q04DX003 (ip), vehicle: distilled water + Tween-80): 98 % of control

O=C1N(C2CCCCC2)CC2C(c3cccnc3)NNC12O (configuration not stated)
T/C [13]: 97 % of control | T/C [14]: 87 % of control

Cc1cc(Br)ccc1C(=O)O
T/C [13]: 94 % of control | T/C [14]: 91 % of control | T/C [15]: 102 % of control

CC(=O)Nc1cc(/C=C/c2ccccc2)ccc1S(=O)(=O)c1ccc(/C=C/c2ccccc2)cc1NC(C)=O
T/C [16]: 93 % of control | T/C [17]: 96 % of control | T/C [18]: 88 % of control

COc1ccc(CCN2COc3ccc4ccc(=O)oc4c3C2)cc1OC
T/C [16]: 92 % of control | T/C [17]: 97 % of control | T/C [18]: 97 % of control
